Among the test systems are CAKI-1 renal; DU-145 prostate; HT29 colon; M14 melanoma; MALME-3M melanoma; NCI/ADR-RES ovarian; OVCAR-5 ovarian; PC-3 prostate; SK-MEL-28 melanoma; SNB-75 CNS.
Common to all, as to experiment: inhibition of tumour cell growth, NCI panel, 48 h

Structures are written as SMILES. Values joined by “and” are separate entries in the source; they are usually repeats but may differ in a detail not shown here. Equal entries are not always repeated.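 Compound exposure: 48 hours, 5 concentrations, 96-well plates. Here, GI50 denotes the concentration required for 50% inhibition of growth. At the TGI there is no net growth.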

For the compound `Clc1ccc(COC(Cn2ccnc2)c2ccc(Cl)cc2Cl)c(Cl)c1` (stereo not given), the GI50 is 3.18 µM in the test with CAKI-1 renal; 11.3 µM with DU-145 prostate; 3.55 µM and 7.53 µM and 3.17 µM with HT29 colon; 3.73 µM in the test with M14 melanoma; 4.52 µM with MALME-3M melanoma; 3.06 µM in the test with NCI/ADR-RES ovarian. The GI50 with OVCAR-5 ovarian was 9.81 µM; with PC-3 prostate it was 3.07 µM; in the test on SK-MEL-28 melanoma it was 4.96 µM. For the same compound, the TGI in the test on CAKI-1 renal is 12.9 µM and 26.8 µM and 23.4 µM; with DU-145 prostate, 23.5 µM and 29.6 µM and 25.6 µM; in the test on HT29 colon, 15.4 µM and 21.1 µM and 15.5 µM; in the test with M14 melanoma, 14.1 µM and 26.6 µM and 22.4 µM; in the test on MALME-3M melanoma, 17.1 µM and 29.6 µM and 25.1 µM; in the test on NCI/ADR-RES ovarian, 13.3 µM and 25.2 µM and 16 µM. Besides, the TGI in the test on OVCAR-5 ovarian was 21.7 µM and 32.4 µM and 25.8 µM; in the test with PC-3 prostate, 13.8 µM and 20.6 µM and 20.3 µM; in the test on SK-MEL-28 melanoma, 17.8 µM and 34.2 µM and 26 µM; in the test with SNB-75 CNS it was 12.6 µM and 28.8 µM and 16.2 µM.
Consider `O=C1CCC(N2C(=O)c3cccc(NCCOCCOCCNC(=O)c4cc5c(o4)C(=O)c4ccccc4C5=O)c3C2=O)C(=O)N1` (stereo not given), for which the GI50 is 2.91 µM in the test with CAKI-1 renal; 1.82 µM in the test with DU-145 prostate; 3.35 µM with HT29 colon; 1.2 µM in the test on M14 melanoma; 0.184 µM in the test on MALME-3M melanoma; 17.1 µM in the test with NCI/ADR-RES ovarian. In addition, the GI50 in the test with OVCAR-5 ovarian is 1.67 µM; in the test with PC-3 prostate, 2.42 µM; in the test with SK-MEL-28 melanoma, 1.92 µM; with SNB-75 CNS it was 2.47 µM. Besides, the TGI in the test with CAKI-1 renal is 10.1 µM; in the test on DU-145 prostate, 3.25 µM; in the test on HT29 colon, above 100 µM; in the test with M14 melanoma, 2.6 µM; in the test on MALME-3M melanoma, 0.448 µM; in the test with NCI/ADR-RES ovarian, 62.1 µM. Besides, the TGI worked out at 3.07 µM with OVCAR-5 ovarian, 15.1 µM in the test on PC-3 prostate, 3.9 µM with SK-MEL-28 melanoma and 4.16 µM in the test with SNB-75 CNS.
For the compound `Cc1cc(C)c(O)c(CNCCCNCc2cc(C)cc(C)c2O)c1`, the GI50 with CAKI-1 renal is 5.45 µM; with DU-145 prostate, 5.19 µM; with HT29 colon, 3.02 µM; in the test on M14 melanoma it was 1.8 µM; with MALME-3M melanoma, 1.73 µM; with NCI/ADR-RES ovarian, 2.17 µM. The GI50 in the test with OVCAR-5 ovarian is 4.23 µM; with PC-3 prostate, 6.69 µM; with SK-MEL-28 melanoma it was 1.65 µM; in the test with SNB-75 CNS, 1.39 µM. The TGI in the test on CAKI-1 renal is 18.7 µM; in the test on DU-145 prostate, 17.7 µM; in the test on HT29 colon it was 10.7 µM; in the test with M14 melanoma, 3.55 µM; in the test on MALME-3M melanoma, 3.29 µM; with NCI/ADR-RES ovarian it was 5.75 µM. Also, the TGI amounted to 19.5 µM in the test on OVCAR-5 ovarian, 19.8 µM in the test with PC-3 prostate, 3.19 µM in the test with SK-MEL-28 melanoma and 2.78 µM in the test with SNB-75 CNS.
For `O=C(Nc1ccc(N2CCNCC2)cn1)c1[nH]ncc1Nc1ncnc2sccc12`, the GI50 was 3.89 µM in the test on CAKI-1 renal; 3.57 µM in the test on DU-145 prostate; 1.91 µM in the test with HT29 colon; 1.86 µM with M14 melanoma; 1.43 µM in the test with MALME-3M melanoma; above 100 µM in the test with NCI/ADR-RES ovarian. Moreover, the GI50 with OVCAR-5 ovarian is 2.08 µM; with PC-3 prostate it was 1.59 µM; with SK-MEL-28 melanoma, 1.95 µM; with SNB-75 CNS, 4.89 µM. For the same compound, the TGI in the test with CAKI-1 renal is above 100 µM; in the test with DU-145 prostate, 12.2 µM; in the test on HT29 colon, 3.97 µM; with M14 melanoma, 3.65 µM; in the test on MALME-3M melanoma, 3.19 µM; in the test with NCI/ADR-RES ovarian it was above 100 µM. The TGI stood at 5.19 µM with OVCAR-5 ovarian, 3.65 µM in the test with PC-3 prostate, 3.83 µM with SK-MEL-28 melanoma and 21.2 µM in the test with SNB-75 CNS.
In the case of `CCC1(N)C(=O)OCc2c1cc1n(c2=O)Cc2cc3ccccc3nc2-1` (stereo not given), the GI50 in the test on CAKI-1 renal was 3.26 µM; in the test with DU-145 prostate, 5.79 µM; in the test on MALME-3M melanoma it was 24.5 µM; with NCI/ADR-RES ovarian it was 7.18 µM; with OVCAR-5 ovarian it was 30 µM; with SK-MEL-28 melanoma, 41.7 µM. For the same compound, the TGI with CAKI-1 renal is > 52.2 µM and 45.9 µM; in the test with DU-145 prostate it was > 68.7 µM and 21.2 µM; with HT29 colon it was above 100 µM; in the test on M14 melanoma it was 54 µM and > 100 µM; in the test on MALME-3M melanoma, above 100 µM; in the test on NCI/ADR-RES ovarian, > 54.1 µM and 61.3 µM. The TGI with OVCAR-5 ovarian was above 100 µM; in the test with PC-3 prostate, above 100 µM; in the test with SK-MEL-28 melanoma, above 100 µM; in the test with SNB-75 CNS it was above 78.9 µM.
With `Cc1ccc(-n2c3c(c4c(CN)c(O)ccc42)CCc2ccccc2C3=O)cc1`, the GI50 is 13 µM in the test with CAKI-1 renal; 17.7 µM in the test with DU-145 prostate; 30.3 µM with HT29 colon; 5.5 µM with M14 melanoma; 4.58 µM in the test with MALME-3M melanoma; 12.5 µM with NCI/ADR-RES ovarian. The GI50 with OVCAR-5 ovarian is 15.8 µM; in the test on PC-3 prostate, 4.77 µM; in the test on SK-MEL-28 melanoma it was 23.4 µM; in the test on SNB-75 CNS, 18.9 µM. The TGI was 26.6 µM with CAKI-1 renal; 41.7 µM in the test with DU-145 prostate; above 100 µM in the test with HT29 colon; 18.9 µM in the test with M14 melanoma; 17.9 µM with MALME-3M melanoma; 28.5 µM with NCI/ADR-RES ovarian. For the same compound, the TGI in the test with OVCAR-5 ovarian turned out to be 30.4 µM; in the test with PC-3 prostate, 19.3 µM; in the test with SK-MEL-28 melanoma it was 69.4 µM; in the test on SNB-75 CNS, 39.3 µM.

Source of the values: PubChem BioAssay (NCI).
